Experimental data: PMC6825211 (Nature Communications, 2019)
Values joined by “and” are separate entries in the source; they are usually repeats but may differ in a detail not shown here. Equal values may be shown once.

Key:
MLD–STZ C57BL/6J mice [1] = assay: MLD–STZ model: ratio of secreted insulin and glucose at fed state; type: in vivo, mouse
MLD–STZ C57BL/6J mice [2] = assay: MLD–STZ model: β-cell proliferation (Ki67); type: in vivo, mouse
[3] = tested on: obese diabetic Lepr db/db mice; assay: db/db model: ipGTT; type: in vivo, mouse; set-up: AUC ipGTT: unit not given beside the values
Text: (§1) Data are representative of six mice per group (n = 6 for (a–f)). g–j Mice were killed at day 31. g β-cell mass (given as percentage of the whole pancreatic section from ten sections spanning the width of the pancreas; n = 5 mice/group) and quantitative analyses from triple stainings for (h) TUNEL, (i) Ki67, (j) pHH3, and (k) nuclear PDX1 expression, insulin, and DAPI expressed as percentage of TUNEL-, Ki67-, pHH3-, or nuclear PDX1-positive β-cells ± SEM. An average number of 13667 (h), 5937 (i), 7108 (j), or 4330 (k) β-cells were counted from n = 3–5 (h, i, k) or n = 5–6 (j) mice/group.
(§2) For intraperitoneal glucose tolerance tests, mice were fasted 12 h overnight and injected i.p. with glucose (40%; B.Braun, Melsungen, Germany) at a dose of 1 g/kg body weight. Blood samples were obtained at time points 0, 15, 30, 60, 90, and 120 min for glucose measurements by using a Glucometer. For i.p. insulin tolerance tests, mice were injected with 0.75 U/kg body weight recombinant human insulin (Novolin, Novo Nordisk) after 4–5-h fasting, and glucose concentration was determined with the Glucometer. Insulin secretion was measured before (0 min) and after (15 and 30 min) i.p. injection of glucose (2 g/kg) and measured by using ultrasensitive mouse Elisa kit (ALPCO Diagnostics, Salem, NH).

[4] = tested on: obese diabetic Lepr db/db mice; assay: db/db model: insulin secretion during ipGTT; type: in vivo, mouse; set-up: GSIS: unit not given here
Text: as §1, §2

[5] = tested on: obese diabetic Lepr db/db mice; assay: db/db model: ratio of secreted insulin and glucose at fed state; type: in vivo, mouse; settings: dbdb Nera
[6] = tested on: obese diabetic Lepr db/db mice; assay: db/db model: β-cell apoptosis (TUNEL); type: in vivo, mouse; settings: for TUNEL%/ mouse: dbdb mice
Text: as §1
Mouse pancreases were dissected and fixed in 4% formaldehyde at 4 °C for 12 h before embedding in paraffin[62]. Two-four-micrometer sections were deparaffinized, rehydrated, and incubated overnight at 4 °C with anti-PDX-1 (Abcam; #47267), anti-Glut2 (Chemicon; #07-1402), anti-Ki67 (Dako; #M7249), anti-phospho-Histone H3 (Ser10; Merck #06-570), and anti-NKX6.1 (DSHB, University of Iowa #F55A12[66]) in combination with TSA (Invitrogen #T30955), or for 2 h at room temperature with anti-insulin (Dako; A0546) antibodies (all at a dilution of 1:100, except anti-PDX-1, which was diluted 1:400) followed by fluorescein isothiocyanate (FITC)- or Cy3-conjugated secondary antibodies (Jackson ImmunoResearch Laboratories, West Grove, PA). Slides were mounted with Vectashield with 4′6-diamidino-2-phenylindole (DAPI) (Vector Labs). β-cell apoptosis was analyzed by the terminal deoxynucleotidyl transferase-mediated dUTP nick-end labeling (TUNEL) technique according to the manufacturer’s instructions (In Situ Cell Death Detection Kit, TMR red; Roche) and double stained for insulin. Fluorescence was analyzed by using a Nikon MEA53200 (Nikon GmbH, Dusseldorf, Germany) microscope, and images were acquired by using NIS-Elements software (Nikon).

[7] = tested on: isolated islets from db/db mice; assay: Ex vivo β-cell apoptosis (TUNEL) in isolated db/db islets; type: cell-based, mouse; settings: for TUNEL%: dbdb islets with Nera
[8] = clinical trials; cited from earlier work
LCK = LCK (Homo sapiens, UniProt P06239); assay: biochemical; settings: read-out: % inhibition by neratinib
LCK, sequence (P06239 whole entry, species assumed): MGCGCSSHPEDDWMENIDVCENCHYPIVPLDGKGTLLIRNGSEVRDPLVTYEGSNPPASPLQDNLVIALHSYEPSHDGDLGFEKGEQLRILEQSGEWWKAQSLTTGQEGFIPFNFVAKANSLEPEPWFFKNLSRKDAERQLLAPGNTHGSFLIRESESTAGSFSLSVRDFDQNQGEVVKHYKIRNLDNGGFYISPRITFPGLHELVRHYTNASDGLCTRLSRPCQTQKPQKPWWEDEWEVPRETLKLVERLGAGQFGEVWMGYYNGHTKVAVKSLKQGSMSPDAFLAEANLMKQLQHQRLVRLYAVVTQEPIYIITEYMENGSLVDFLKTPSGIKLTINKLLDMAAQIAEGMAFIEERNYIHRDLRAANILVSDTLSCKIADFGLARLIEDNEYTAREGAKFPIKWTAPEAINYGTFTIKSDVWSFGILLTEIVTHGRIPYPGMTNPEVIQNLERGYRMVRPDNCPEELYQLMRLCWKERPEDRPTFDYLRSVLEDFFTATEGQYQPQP

MAP4K4 = MAP4K4 (Homo sapiens, UniProt O95819); assay: biochemical; settings: read-out: % inhibition by neratinib
MAP4K4, sequence (O95819 whole entry, species assumed): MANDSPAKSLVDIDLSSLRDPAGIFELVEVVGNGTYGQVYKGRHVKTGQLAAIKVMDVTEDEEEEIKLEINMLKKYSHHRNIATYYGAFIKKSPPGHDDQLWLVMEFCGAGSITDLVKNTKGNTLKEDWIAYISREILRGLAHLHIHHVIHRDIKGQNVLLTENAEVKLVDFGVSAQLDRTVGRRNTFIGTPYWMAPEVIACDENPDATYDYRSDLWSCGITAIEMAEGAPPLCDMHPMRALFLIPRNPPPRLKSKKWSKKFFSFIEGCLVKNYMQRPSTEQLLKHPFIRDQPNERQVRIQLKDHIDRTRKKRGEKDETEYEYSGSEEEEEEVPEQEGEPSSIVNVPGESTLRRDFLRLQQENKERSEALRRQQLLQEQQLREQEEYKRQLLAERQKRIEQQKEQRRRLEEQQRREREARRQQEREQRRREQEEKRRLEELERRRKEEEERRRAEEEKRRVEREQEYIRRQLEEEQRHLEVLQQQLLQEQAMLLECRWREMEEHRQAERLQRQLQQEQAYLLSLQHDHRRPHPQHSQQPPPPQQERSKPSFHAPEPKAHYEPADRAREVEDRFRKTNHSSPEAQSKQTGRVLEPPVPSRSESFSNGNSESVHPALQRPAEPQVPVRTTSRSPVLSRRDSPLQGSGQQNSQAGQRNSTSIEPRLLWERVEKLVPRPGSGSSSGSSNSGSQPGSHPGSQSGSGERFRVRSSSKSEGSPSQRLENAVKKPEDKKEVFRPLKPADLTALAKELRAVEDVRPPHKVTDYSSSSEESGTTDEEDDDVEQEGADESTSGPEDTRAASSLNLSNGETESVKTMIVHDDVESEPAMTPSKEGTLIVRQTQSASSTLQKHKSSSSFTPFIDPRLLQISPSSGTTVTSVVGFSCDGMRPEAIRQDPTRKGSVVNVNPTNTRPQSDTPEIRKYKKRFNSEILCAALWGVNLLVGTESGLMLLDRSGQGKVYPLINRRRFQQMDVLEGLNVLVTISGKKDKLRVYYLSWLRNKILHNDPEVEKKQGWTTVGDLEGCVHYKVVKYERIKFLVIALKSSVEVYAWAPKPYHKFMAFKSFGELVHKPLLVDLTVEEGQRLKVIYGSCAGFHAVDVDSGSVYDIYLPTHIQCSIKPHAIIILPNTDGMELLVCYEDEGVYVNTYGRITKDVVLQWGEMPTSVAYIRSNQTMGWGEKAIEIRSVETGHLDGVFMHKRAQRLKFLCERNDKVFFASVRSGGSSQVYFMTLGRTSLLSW
db/db model: body weight = settings: 5 mg/kg i.p. daily, 31 days
CK1-EPSILON = CK1-EPSILON (Homo sapiens, UniProt P49674); assay: Nanosyn kinase profiling, mobility shift assay; settings: read-out: % inhibition by neratinib
CK1-EPSILON, sequence (P49674 whole entry): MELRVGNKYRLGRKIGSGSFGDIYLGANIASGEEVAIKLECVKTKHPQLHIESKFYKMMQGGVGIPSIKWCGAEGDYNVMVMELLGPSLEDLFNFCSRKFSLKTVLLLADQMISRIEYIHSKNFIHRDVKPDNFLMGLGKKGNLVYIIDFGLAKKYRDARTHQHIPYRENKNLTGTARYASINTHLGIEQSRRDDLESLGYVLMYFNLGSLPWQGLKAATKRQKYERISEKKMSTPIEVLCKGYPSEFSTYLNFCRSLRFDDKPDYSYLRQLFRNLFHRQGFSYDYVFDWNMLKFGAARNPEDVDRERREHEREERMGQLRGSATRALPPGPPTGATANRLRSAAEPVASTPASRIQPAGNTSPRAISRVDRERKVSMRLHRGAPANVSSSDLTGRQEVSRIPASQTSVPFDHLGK

FGFR1 = FGFR1 (Homo sapiens, UniProt P11362); assay: Nanosyn kinase profiling, mobility shift assay; settings: read-out: % inhibition by neratinib
IRAK4 = IRAK4 (Homo sapiens, UniProt Q9NWZ3); assay: Nanosyn kinase profiling, mobility shift assay; settings: read-out: % inhibition by neratinib
IRAK4, sequence (Q9NWZ3 whole entry): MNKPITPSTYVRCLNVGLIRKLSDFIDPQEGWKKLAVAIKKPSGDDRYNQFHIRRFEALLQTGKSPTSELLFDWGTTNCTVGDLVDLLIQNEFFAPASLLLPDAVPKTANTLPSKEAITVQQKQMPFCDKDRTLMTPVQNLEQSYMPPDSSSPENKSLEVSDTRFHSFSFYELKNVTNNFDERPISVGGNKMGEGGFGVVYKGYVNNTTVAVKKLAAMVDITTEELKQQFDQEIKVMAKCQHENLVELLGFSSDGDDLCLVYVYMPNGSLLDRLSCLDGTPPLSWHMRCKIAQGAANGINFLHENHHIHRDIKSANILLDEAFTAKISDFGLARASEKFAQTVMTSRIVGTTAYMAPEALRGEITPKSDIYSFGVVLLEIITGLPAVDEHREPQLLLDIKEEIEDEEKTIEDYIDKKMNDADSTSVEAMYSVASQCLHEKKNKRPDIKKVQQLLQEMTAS

JNK2 = JNK2 (Homo sapiens, UniProt P45984); assay: Nanosyn kinase profiling, mobility shift assay; settings: read-out: % inhibition by neratinib
JNK2, sequence (P45984 whole entry): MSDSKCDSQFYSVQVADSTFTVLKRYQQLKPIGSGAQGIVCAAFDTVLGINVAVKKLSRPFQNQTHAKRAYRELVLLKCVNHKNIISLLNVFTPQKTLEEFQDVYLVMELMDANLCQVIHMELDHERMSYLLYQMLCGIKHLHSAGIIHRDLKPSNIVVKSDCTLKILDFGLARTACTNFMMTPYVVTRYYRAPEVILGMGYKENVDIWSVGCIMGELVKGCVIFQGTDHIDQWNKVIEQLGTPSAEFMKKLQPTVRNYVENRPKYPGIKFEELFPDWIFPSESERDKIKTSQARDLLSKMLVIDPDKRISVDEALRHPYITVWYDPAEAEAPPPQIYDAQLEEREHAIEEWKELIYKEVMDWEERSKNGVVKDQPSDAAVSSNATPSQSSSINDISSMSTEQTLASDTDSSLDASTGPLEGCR

MET = MET (Homo sapiens, UniProt P08581); assay: Nanosyn kinase profiling, mobility shift assay; settings: read-out: % inhibition by neratinib
MET, sequence (P08581 25-1390): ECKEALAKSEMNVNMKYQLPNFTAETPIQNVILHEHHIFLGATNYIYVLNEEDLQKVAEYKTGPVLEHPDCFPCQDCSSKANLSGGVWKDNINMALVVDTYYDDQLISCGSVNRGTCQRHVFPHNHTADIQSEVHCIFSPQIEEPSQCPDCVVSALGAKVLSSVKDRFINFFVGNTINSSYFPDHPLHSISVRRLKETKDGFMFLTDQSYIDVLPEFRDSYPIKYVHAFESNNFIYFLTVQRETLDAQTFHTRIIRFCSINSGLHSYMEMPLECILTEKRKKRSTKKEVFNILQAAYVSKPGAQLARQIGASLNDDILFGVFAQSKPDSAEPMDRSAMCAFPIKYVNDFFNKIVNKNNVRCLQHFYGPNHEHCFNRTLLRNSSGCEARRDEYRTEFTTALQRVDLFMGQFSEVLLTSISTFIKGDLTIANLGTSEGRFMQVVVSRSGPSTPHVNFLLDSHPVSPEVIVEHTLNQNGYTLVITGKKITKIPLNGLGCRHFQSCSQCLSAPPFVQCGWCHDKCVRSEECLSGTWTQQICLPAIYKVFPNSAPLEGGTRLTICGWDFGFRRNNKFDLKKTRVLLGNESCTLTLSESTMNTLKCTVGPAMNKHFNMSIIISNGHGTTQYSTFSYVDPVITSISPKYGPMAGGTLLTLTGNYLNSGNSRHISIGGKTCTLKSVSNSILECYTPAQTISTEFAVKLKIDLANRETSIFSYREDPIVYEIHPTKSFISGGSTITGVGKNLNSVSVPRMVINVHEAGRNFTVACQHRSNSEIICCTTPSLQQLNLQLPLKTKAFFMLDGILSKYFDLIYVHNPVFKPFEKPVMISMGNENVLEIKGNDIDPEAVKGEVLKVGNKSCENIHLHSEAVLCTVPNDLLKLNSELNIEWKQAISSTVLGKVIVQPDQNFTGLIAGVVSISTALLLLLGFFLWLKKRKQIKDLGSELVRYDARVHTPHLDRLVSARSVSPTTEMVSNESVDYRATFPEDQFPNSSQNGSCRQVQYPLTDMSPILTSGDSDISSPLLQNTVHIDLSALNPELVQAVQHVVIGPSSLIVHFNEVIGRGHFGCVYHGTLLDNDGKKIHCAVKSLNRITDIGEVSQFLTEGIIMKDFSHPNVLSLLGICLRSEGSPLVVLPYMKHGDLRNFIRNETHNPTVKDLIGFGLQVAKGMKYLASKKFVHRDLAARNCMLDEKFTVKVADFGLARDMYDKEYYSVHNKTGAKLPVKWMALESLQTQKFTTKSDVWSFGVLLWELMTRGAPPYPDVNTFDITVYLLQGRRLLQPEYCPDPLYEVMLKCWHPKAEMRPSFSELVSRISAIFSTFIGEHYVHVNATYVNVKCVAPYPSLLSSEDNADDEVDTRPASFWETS

PDK1 = PDK1 (Homo sapiens, UniProt O15530); assay: Nanosyn kinase profiling, mobility shift assay; settings: read-out: % inhibition by neratinib
PDK1, sequence (O15530 whole entry): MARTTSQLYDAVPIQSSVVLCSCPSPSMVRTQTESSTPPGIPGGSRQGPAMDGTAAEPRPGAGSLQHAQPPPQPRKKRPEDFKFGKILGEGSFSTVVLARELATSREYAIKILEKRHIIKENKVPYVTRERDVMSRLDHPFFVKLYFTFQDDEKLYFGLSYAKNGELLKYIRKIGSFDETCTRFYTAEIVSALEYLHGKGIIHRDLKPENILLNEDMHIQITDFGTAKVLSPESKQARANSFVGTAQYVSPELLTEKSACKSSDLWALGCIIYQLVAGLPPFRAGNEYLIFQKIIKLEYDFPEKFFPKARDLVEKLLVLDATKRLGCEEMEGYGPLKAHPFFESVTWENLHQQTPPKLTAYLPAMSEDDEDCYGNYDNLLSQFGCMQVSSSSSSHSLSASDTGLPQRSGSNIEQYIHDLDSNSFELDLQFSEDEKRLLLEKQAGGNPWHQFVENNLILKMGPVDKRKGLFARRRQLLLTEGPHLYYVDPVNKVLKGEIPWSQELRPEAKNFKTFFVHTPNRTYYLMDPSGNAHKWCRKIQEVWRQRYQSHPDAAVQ

## CCOc1cc2ncc(C#N)c(Nc3ccc(OCc4ccccn4)c(Cl)c3)c2cc1NC(=O)/C=C/CN(C)C [neratinib]
MLD–STZ C57BL/6J mice [1]; NeraCtr, Mean
  ins/gluc: 4.232
MLD–STZ C57BL/6J mice [1]; NeraCtr, fed state, individual mice
  ins/gluc: 5.92 and 11.7581 and 5.035 and 1.3144 and 2.029 and 2.349 and 1.295 and 4.152
MLD–STZ C57BL/6J mice [1]; NeraSTZ, Mean
  ins/gluc: 2.006
MLD–STZ C57BL/6J mice [1]; NeraSTZ, fed state, individual mice
  ins/gluc: 2.868 and 0.965 (2×) and 1.859 and 3.923 and 1.035 and 2.9255 and 4.307 and 0.6012 and 1.262 and 1.53 and 2.798 and 0.7155 and 2.33
MLD–STZ C57BL/6J mice [2]; NeraCtr group (no STZ), MEAN
  Ki67%/ mouse: 0.3774%
MLD–STZ C57BL/6J mice [2]; NeraCtr group (no STZ), individual mice
  Ki67%/ mouse: 0% and 2% and 1.019%
MLD–STZ C57BL/6J mice [2]; NeraSTZ group, MEAN
  Ki67%/ mouse: 3.98%
MLD–STZ C57BL/6J mice [2]; NeraSTZ group, individual mice
  Ki67%/ mouse: 0% and 6.981% and 5.492% and 7.984% and 3.425%
[3]; db/db
  basal glucose levels after an overnight fast: unchanged
  glucose levels in ipGTT: lower glucose levels at all time points measured
[3]; insert 8b, individual mice
  AUC ipGTT: 30540 and 34635 and 37620 and 33592.5 and 28230 and 32955
[3]; insert 8b, mean
  MEAN AUC ipGTT: 32928.8
[3]; time after glc 0, MEAN
  ipGTT: 167.333 mg/dL
[3]; time after glc 0, individual mice
  ipGTT: 133 mg/dL and 142 mg/dL and 168 mg/dL and 224 mg/dL and 154 mg/dL and 183 mg/dL
[3]; time after glc 15, MEAN
  ipGTT: 424.5 mg/dL
[3]; time after glc 15, individual mice, 600 mg/dl is maximum reading
  ipGTT: 425 mg/dL and 445 mg/dL and 468 mg/dL and 413 mg/dL and 308 mg/dL and 488 mg/dL
[3]; time after glc 30, MEAN, 600 mg/dl is maximum reading
  ipGTT: 520.5 mg/dL
[3]; time after glc 30, individual mice, 600 mg/dl is maximum reading
  ipGTT: 481 mg/dL and ≥ 600 mg/dL and 476 mg/dL and 485 mg/dL
[3]; time after glc 60, MEAN
  ipGTT: 340.167 mg/dL
[3]; time after glc 60, individual mice
  ipGTT: 301 mg/dL and 355 mg/dL and 388 mg/dL and 367 mg/dL and 321 mg/dL and 309 mg/dL
[3]; time after glc 90, MEAN
  ipGTT: 226 mg/dL
[3]; time after glc 90, individual mice
  ipGTT: 221 mg/dL and 183 mg/dL and 280 mg/dL and 259 mg/dL and 141 mg/dL and 272 mg/dL
[3]; time after glc 120, MEAN
  ipGTT: 170.833 mg/dL
[3]; time after glc 120, individual mice
  ipGTT: 191 mg/dL and 139 mg/dL and 210 mg/dL and 133 mg/dL and 213 mg/dL
[4]; db/db
  insulin secretion: enhanced insulin secretion
[4]; time after glucose injection 0, MEAN
  GSIS: 7.868
[4]; time after glucose injection 0, individual mice
  GSIS: 7.6163 and 7.7481 and 3.303 and 9.154 and 8.9273 and 10.458
[4]; time after glucose injection 15, MEAN
  GSIS: 11.2434
[4]; time after glucose injection 15, individual mice
  GSIS: 17.086 and 7.6058 and 10.292 and 7.1842 and 8.1355 and 17.157
[5]; Mean
  ins/gluc: 13.8584
[5]; fed state, individual mice
  ins/gluc: 16.7538 and 11.2869 and 14.8626 and 15.5775 and 11.515 and 13.1546
[6]; db/db, day 31
  β-cell apoptosis: significantly reduced β-cell apoptosis
[6]; Mean
  TUNEL%/ mouse: 0.5462%
[6]; individual mice
  TUNEL%/ mouse: 0.6553% and 0.4112% and 0.66% and 0.4585%
[7]; 10 μM, 24 h
  β-cell survival in db/db islets ex vivo: fully restored β-cell survival
[7]; MEAN
  TUNEL%: 1.158%
[7]; individual replicates
  TUNEL%: 1.875% and 1.213% and 0.7124% and 0.9025% and 0.3448% and 1.9025%
[8]
  most common neratinib-associated adverse events: diarrhea, vomiting, and nausea
LCK
  inhibition at 10 µM: 96%
MAP4K4
  inhibition at 10 µM: 73%
db/db model: body weight
  body weight: no influence on body weight
CK1-EPSILON
  inhibition at 10 µM: 77%
FGFR1
  inhibition at 10 µM: 26%
IRAK4
  inhibition at 10 µM: 17%
JNK2
  inhibition at 10 µM: 84%
MET
  inhibition at 10 µM: 28%
PDK1
  inhibition at 10 µM: 6%
